Laboratory results: US20260232682A1, “GSPT1 DEGRADER COMPOUNDS” (Captor Therapeutics S.A., priority 2023, published 2026)

Tests used:
[1] = target: CRBN/DDB1 protein complex (Homo sapiens, UniProt Q96SW2); test: CRBN displacement TR-FRET assay; conditions: Thalidomide-Red tracer, 6×His-CRBN/DDB1; read-out: CRBN binding Ki
Summary of the method: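 Test compound at various concentrations competed with 6.8 nM Thalidomide-Red tracer for 5 nM 6×His-CRBN/DDB1, detected with 0.5 nM anti-His-Eu cryptate in buffer with 1 mM DTT and 1% DMSO. Incubation ran 180 min at room temperature with a time-resolved fluorescence read-out. IC50 values were converted to Ki by Cheng–Prusoff using tracer Kd and protein and tracer concentrations.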

[2] = target: T1, [SALL4 ZF2]-[compound]-[CRBN/DDB1] ternary complex (Homo sapiens, UniProt Q96SW2+Q9UJQ4); test: AlphaLISA assay for off-target recruitment detection, SALL4 ZF2; type: binding; conditions: 1 μM compound; normalized to Lenalidomide; read-out: Normalized ternary complex response, SALL4 ZF2
T1 construct: SALL4 ZF2
Summary of the method: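 Neo-substrate with 40 μg/ml donor beads and 200 nM 6×His-CRBN/DDB1 with 40 μg/ml anti-His acceptor beads were each prepared in PBS pH 7.4 with Tween-20 and 1 mM DTT, preincubated 30 min at RT, then mixed. Compounds at 2% DMSO were incubated 30 min at 25 °C, read at 680/615 nm, and normalised between DMSO background and reference glue maximum.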

[3] = target: T2, GSPT1-HiBiT protein in GSPT1-HiBiT HEK293 cells (Homo sapiens, UniProt P15170+Q96SW2); test: GSPT1 degradation assay using HiBiT system (Nano-Glo HiBiT lytic assay); type: cell-based; conditions: 6 hours treatment; for DC50: read-out: HiBiT lytic assay Geomean absolute DC50
T2 construct: endogenous in cells; host or cells: HEK293 (CRISPR/Cas9 knock-in of HiBiT at the GSPT1 locus)
Text: The effect of selected compounds of the invention on GSPT1 protein levels was investigated, using the GSPT1-HiBiT HEK293 cell line and the Nano-Glo HiBiT degradation assay protocol below.
GSPT1-HiBiT HEK293 cells were generated in-house using the HEK293 parental cells (ATCC, cat. no 70016364) and the CRISPR/Cas9 system. HEK293 cells were transformed with pSpCas9-BB-2A-Puro v2.0 plasmid carrying gRNA targeting the C-terminus of GSPT1 and ssODN template containing the HiBiT tag sequence with flanking homology sequences. Neon Transfection System (Thermo Fisher Scientific) was used for electroporation. HEK293 GSPT1-HiBiT cells were cultured with DMEM Glutamax (Gibco) supplemented with 10% heat inactivated FBS (Gibco). After transfection the culture medium was changed to DMEM Glutamax with 10% heat-inactivated FBS and 1% Penicillin-Streptomycin (Biowest) supplemented with Puromycin (2 μg/ml; Invivogen) for clonal selection. In order to isolate single cell clones for further validation and analysis, limiting dilution cloning in 96-well plates was performed. When the single clones reached confluency, HiBiT Lytic Assay (Promega) was performed in order to identify HiBiT positive clones. The clone selected for further studies was verified and validated using genotyping and HiBiT Blotting (Promega).
Cells were maintained in DMEM Glutamax medium, supplemented with 1% penicillin/streptomycin and 10% Fetal Bovine Serum (FBS) at 37° C., 5% CO2. Compounds were stored frozen as 20 mM DMSO stocks.
For the Nano-Glo HiBiT assay, cells were seeded onto 384-well white solid bottom plate at 2×10^3 cells/well in 40 μL using the Agilent BioTek MultiFlo FX Multimode Dispenser and incubated overnight. Following overnight incubation (37° C., 5% CO2) cells were treated with the test compounds and vehicle only (DMSO) control using the Echo 555 Liquid Handler. Twelve data-point compound titration curve with concentrations ranging from 10 μM to 0.03 nM was used. Final DMSO concentration was kept constant at 0.25% v/v across the assay plate. After 6 hours of incubation (37° C., 5% CO2), plates were removed from the incubator and let to equilibrate to RT. Luminescent signal detection was conducted using the Nano-Glo HiBiT Lytic Detection System (Promega, cat. nr N3050). Nano-Glo HiBiT Lytic Reagent was prepared freshly by diluting the LgBiT Protein (1:100 vol/vol) and the Nano-Glo HiBiT Lytic Substrate (1:50 vol/vol) in the relevant volume of the Nano-Glo HiBiT Lytic Buffer. 40 μL of the HiBiT Lytic Reagent was added per well, plates were shaken to facilitate lysis (350 rpm, 5 min, RT) and incubated in the dark for the following 10 min. Luminescence was read using the PHERAstar multimode plate reader (BMG LABTECH). The raw data (the relative luminescence unit values, RLU) were uploaded under the relevant protocol and analysed in CDDVault data management platform. Luminescence (RLU) values were normalized to the controls, and reported absolute DC50 values and Dmax values were calculated in CDDVault using non-linear regression and appropriate equations.

CRBN/DDB1 protein complex, sequence (Q96SW2 whole entry, species assumed): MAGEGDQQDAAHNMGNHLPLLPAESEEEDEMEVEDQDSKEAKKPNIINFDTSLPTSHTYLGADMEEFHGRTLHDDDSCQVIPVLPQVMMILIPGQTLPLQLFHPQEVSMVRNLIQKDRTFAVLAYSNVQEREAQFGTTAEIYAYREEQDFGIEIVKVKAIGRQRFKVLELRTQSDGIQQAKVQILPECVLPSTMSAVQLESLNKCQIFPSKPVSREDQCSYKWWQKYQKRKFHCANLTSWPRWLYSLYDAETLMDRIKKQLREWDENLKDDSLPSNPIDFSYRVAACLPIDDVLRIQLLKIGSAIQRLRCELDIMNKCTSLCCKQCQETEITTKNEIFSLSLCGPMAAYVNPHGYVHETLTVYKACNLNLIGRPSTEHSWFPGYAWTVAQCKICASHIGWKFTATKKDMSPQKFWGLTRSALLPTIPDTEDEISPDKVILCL
CRBN/DDB1 protein complex, sequence (Q16531 whole entry partner, species assumed): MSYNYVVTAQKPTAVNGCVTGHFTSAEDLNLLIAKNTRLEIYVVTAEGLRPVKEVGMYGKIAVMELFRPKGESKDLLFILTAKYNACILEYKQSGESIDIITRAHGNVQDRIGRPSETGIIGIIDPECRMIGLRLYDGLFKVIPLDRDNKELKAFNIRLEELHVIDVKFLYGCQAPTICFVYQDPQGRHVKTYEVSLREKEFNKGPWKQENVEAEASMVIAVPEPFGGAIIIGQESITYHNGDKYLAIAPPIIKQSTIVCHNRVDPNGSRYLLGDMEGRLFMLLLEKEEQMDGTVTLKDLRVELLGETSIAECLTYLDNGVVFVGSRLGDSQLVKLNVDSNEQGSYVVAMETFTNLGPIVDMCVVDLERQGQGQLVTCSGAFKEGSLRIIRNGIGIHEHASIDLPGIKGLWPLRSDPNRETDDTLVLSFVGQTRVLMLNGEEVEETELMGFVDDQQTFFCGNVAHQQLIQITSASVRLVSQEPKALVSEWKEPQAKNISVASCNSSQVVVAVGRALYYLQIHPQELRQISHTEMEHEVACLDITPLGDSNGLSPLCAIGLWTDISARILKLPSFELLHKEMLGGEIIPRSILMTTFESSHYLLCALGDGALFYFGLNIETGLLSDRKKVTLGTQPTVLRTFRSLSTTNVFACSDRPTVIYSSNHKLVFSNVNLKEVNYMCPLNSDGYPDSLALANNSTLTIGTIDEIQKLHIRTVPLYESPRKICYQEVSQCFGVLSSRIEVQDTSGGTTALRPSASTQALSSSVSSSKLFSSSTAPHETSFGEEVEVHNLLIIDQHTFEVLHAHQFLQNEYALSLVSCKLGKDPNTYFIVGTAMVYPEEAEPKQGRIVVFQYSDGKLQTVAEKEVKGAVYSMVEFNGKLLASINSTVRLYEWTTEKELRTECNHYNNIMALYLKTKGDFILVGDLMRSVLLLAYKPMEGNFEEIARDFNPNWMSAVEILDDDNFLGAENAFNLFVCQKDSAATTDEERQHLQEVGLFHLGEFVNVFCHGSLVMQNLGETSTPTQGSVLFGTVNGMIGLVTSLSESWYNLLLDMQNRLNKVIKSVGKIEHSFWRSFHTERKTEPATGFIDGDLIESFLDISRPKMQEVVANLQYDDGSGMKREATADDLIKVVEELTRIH
T1 sequence (Q9UJQ4 410-432 limits assumed): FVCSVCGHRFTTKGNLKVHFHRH
T1 sequence (Q96SW2 whole entry): as the sequence (Q96SW2 whole entry, species assumed) above
T1 sequence (Q16531 whole entry partner): as the sequence (Q16531 whole entry partner, species assumed) above
T2 sequence (P15170 whole entry): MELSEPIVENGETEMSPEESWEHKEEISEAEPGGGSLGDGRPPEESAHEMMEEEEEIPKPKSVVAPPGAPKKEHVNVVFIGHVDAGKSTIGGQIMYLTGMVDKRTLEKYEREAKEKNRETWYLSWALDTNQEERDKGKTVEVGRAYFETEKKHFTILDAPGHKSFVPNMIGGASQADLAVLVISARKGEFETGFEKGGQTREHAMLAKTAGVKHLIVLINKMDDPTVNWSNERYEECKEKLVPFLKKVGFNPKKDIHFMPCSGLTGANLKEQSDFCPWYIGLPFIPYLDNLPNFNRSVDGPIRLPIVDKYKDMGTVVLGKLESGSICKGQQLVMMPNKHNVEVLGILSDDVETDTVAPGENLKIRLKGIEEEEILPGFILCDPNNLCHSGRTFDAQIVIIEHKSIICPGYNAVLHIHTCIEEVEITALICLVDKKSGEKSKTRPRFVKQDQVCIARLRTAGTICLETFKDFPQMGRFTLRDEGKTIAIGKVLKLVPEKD
T2 sequence (Q96SW2 whole entry): as the sequence (Q96SW2 whole entry, species assumed) above
T2 sequence (Q16531 whole entry partner): as the sequence (Q16531 whole entry partner, species assumed) above

Ki [1] [nM] | activation at 1 µM [2] [%] | Dmax [3] [%] | DC50 [3] [nM] | Compound
500 to 1000 | < 10 | ≥ 75 | 10 to 50 | COc1cc(C)c(Cl)cc1NC(=O)OCc1ccc2cc(C3CCC(=O)NC3=O)c(C)nc2c1 (stereo not shown) [Compound 21, (3-(2,6-dioxopiperidin-3-yl)-2-methylquinolin-7-yl)methyl (5-chloro-2-methoxy-4-methylphenyl)carbamate]
> 1000 | < 10 | ≥ 75 | 10 to 50 | Cc1ccc(NC(=O)OCc2cc(F)c3cc(C4CCC(=O)NC4=O)c(C)nc3c2)cc1Cl (stereo not shown) [Compound 22, (3-(2,6-dioxopiperidin-3-yl)-5-fluoro-2-methylquinolin-7-yl)methyl (3-chloro-4-methylphenyl)carbamate]
< 500 | < 10 | ≥ 75 | 50 to 100 | Cc1ccc(NC(=O)NCc2ccc3cc(N4CCC(=O)NC4=O)c(C)nc3c2)cc1Cl [Compound 27, 1-(3-chloro-4-methylphenyl)-3-((3-(2,4-dioxotetrahydropyrimidin-1(2H)-yl)-2-methylquinolin-7-yl)methyl)urea]
500 to 1000 | < 10 | ≥ 75 | 10 to 50 | Cc1ccc(NC(=O)OCc2ccc3cc(N4CCC(=O)NC4=O)c(C)nc3c2)cc1Cl [Compound 28, (3-(2,4-dioxotetrahydropyrimidin-1(2H)-yl)-2-methylquinolin-7-yl)methyl (3-chloro-4-methylphenyl)carbamate]
< 500 | 25 to 50 | ≥ 75 | 10 to 50 | Cc1ccc(NC(=O)OCc2ccc3nc(C)c(N4CCC(=O)NC4=O)cc3c2)cc1Cl [Compound 29, (3-(2,4-dioxotetrahydropyrimidin-1(2H)-yl)-2-methylquinolin-6-yl)methyl (3-chloro-4-methylphenyl)carbamate]
500 to 1000 | < 10 | ≥ 75 | < 10 | Cc1nc2cc(COC(=O)Nc3cc(C(C)(C)C)no3)ccc2cc1C1CCC(=O)NC1=O (stereo not shown) [Compound 30, (3-(2,6-dioxopiperidin-3-yl)-2-methylquinolin-7-yl)methyl (3-(tert-butyl)isoxazol-5-yl)carbamate]
500 to 1000 | < 10 | ≥ 75 | 10 to 50 | Cc1ccc(NC(=O)CCc2ccc3cc(C4CCC(=O)NC4=O)c(C)nc3c2)cc1Cl (stereo not shown) [Compound 32, N-(3-chloro-4-methylphenyl)-3-(3-(2,6-dioxopiperidin-3-yl)-2-methylquinolin-7-yl)propanamide]
500 to 1000 | < 10 | ≥ 75 | 10 to 50 | Cc1nc2cc(COC(=O)Nc3csc(-c4ccccc4)c3)ccc2cc1C1CCC(=O)NC1=O (stereo not shown) [Compound 37, (3-(2,6-dioxopiperidin-3-yl)-2-methylquinolin-7-yl)methyl (5-phenylthiophen-3-yl)carbamate]
> 1000 | < 10 | ≥ 75 | 50 to 100 | Cc1ccc(NC(=O)OCc2ccc3cc([C@@H]4CCC(=O)NC4=O)c(C)nc3c2)cc1Cl [Compound 38, (3-(2,6-dioxopiperidin-3-yl)-2-methylquinolin-7-yl)methyl (3-chloro-4-methylphenyl)carbamate]
500 to 1000 | < 10 | ≥ 75 | < 10 | Cc1ccc(NC(=O)OCc2ccc3cc([C@H]4CCC(=O)NC4=O)c(C)nc3c2)cc1Cl [Compound 39, (3-(2,6-dioxopiperidin-3-yl)-2-methylquinolin-7-yl)methyl (3-chloro-4-methylphenyl)carbamate]
< 500 | < 10 | ≥ 75 | 10 to 50 | Cc1nc2cc(COC(=O)Nc3ccc(N4CCOCC4)nc3)ccc2cc1C1CCC(=O)NC1=O (stereo not shown) [Compound 42, (3-(2,6-dioxopiperidin-3-yl)-2-methylquinolin-7-yl)methyl (6-morpholinopyridin-3-yl)carbamate]
< 500 | < 10 | ≥ 75 | < 10 | Cc1ccc(NC(=O)OCc2ccc3c(C)c(C4CCC(=O)NC4=O)c(C)nc3c2)cc1Cl (stereo not shown) [Compound 44, (3-(2,6-dioxopiperidin-3-yl)-2,4-dimethylquinolin-7-yl)methyl (3-chloro-4-methylphenyl)carbamate]
> 1000 | < 10 | ≥ 75 | 10 to 50 | COc1ccc(NC(=O)OCc2ccc3cc(C4CCC(=O)NC4=O)c(C)nc3c2)nn1 (stereo not shown) [Compound 45, (3-(2,6-dioxopiperidin-3-yl)-2-methylquinolin-7-yl)methyl (6-methoxypyridazin-3-yl)carbamate]
500 to 1000 | < 10 | ≥ 75 | 10 to 50 | Cc1nc2cc(COC(=O)Nc3cccc(-c4ccccc4)c3)ccc2cc1C1CCC(=O)NC1=O (stereo not shown) [Compound 46, (3-(2,6-dioxopiperidin-3-yl)-2-methylquinolin-7-yl)methyl [1,1′-biphenyl]-3-ylcarbamate]
> 1000 | < 10 | ≥ 75 | 50 to 100 | Cc1ccc(NC(=O)OCc2cc3nc(C)c(C4CCC(=O)NC4=O)cc3cc2F)cc1Cl (stereo not shown) [Compound 49, (3-(2,6-dioxopiperidin-3-yl)-6-fluoro-2-methylquinolin-7-yl)methyl (3-chloro-4-methylphenyl)carbamate]
500 to 1000 | < 10 | ≥ 75 | 10 to 50 | Cc1ccc(NC(=O)OCc2ccc3cc(C4CCC(=O)NC4=O)c(C)nc3c2F)cc1Cl (stereo not shown) [Compound 50, (3-(2,6-dioxopiperidin-3-yl)-8-fluoro-2-methylquinolin-7-yl)methyl (3-chloro-4-methylphenyl)carbamate]
< 500 | ≥ 50 | ≥ 75 | 10 to 50 | Cc1ccc(NC(=O)NCc2ccc3nc(C)c(N4CCC(=O)NC4=O)cc3c2)cc1Cl [Compound 51, 1-(3-chloro-4-methylphenyl)-3-((3-(2,4-dioxotetrahydropyrimidin-1(2H)-yl)-2-methylquinolin-6-yl)methyl)urea]
500 to 1000 | < 10 | ≥ 75 | 10 to 50 | Cc1ccc(NC(=O)OCc2ccc3cc(C4CCC(=O)NC4=O)c(C)nc3c2)c(Cl)c1Cl (stereo not shown) [Compound 54, (3-(2,6-dioxopiperidin-3-yl)-2-methylquinolin-7-yl)methyl (2,3-dichloro-4-methylphenyl)carbamate]
500 to 1000 | < 10 | ≥ 75 | 10 to 50 | Cc1nc2cc(COC(=O)NC3CCC(C(C)(C)C)CC3)ccc2cc1C1CCC(=O)NC1=O (stereo not shown) [Compound 55, (3-(2,6-dioxopiperidin-3-yl)-2-methylquinolin-7-yl)methyl (4-(tert-butyl)cyclohexyl)carbamate]
